From patent US8815875B2 (Merck Sharp & Dohme Corp., priority 2008, dated 2014) come the findings set out here.

Where only a bound is given, the exact number is not on record here.

The test addresses FABP4 (Homo sapiens, UniProt P15090). In words: TdF (Temperature Dependence Fluorescence) assay, thermal shift, FABP4. It is filed as binding. In short, it runs like this: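 Binding measured as ΔTm versus protein alone; binding constants derived by nonlinear fitting with ΔHL set to −7 kcal/mol and ΔCpL to zero.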

Sequence of FABP4 (P15090 whole entry, species assumed): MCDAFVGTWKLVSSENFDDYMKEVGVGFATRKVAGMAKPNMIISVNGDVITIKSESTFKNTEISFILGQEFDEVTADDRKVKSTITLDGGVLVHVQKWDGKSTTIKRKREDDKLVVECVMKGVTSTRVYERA

Take `CCc1ccc(OCc2cc(=O)n3nc(-c4ccccc4)nc3[nH]2)c(C(C)(C)C)c1` [1-68]: the “FABP4 TdF Kd” value is “B (0.5 ≦ B < 0.001 μM)”.
As to `Cn1ncc2cccc(NCc3cc(=O)n4nc(-c5ccccc5)nc4[nH]3)c21` [1-106], the Kd is greater than 500 nM.
On the same count and under the same terms, to `O=C(NC1(CO)CCOCC1)C1(OCc2cc(=O)n3nc(-c4ccccc4)nc3[nH]2)CCCCC1` [48-69] belongs greater than 500 nM.
In the case of `O=C(NCCO)C1(OCc2cc(=O)n3nc(-c4ccccc4)nc3[nH]2)CCCCC1` [48-17], the “FABP4 TdF Kd” value is reported as “B (0.5 ≦ B < 0.001 μM)”.
Regarding `O=c1cc(CSc2cccc(Cl)c2C2CC2)[nH]c2nc(-c3ccccc3)nn12` [52-4], the Kd was no more than 1 nM.
For `N#Cc1cccc(OCc2cc(=O)n3nc(-c4ccccc4)nc3[nH]2)c1Cl` [45-2], the “FABP4 TdF Kd” value is recorded as “B (0.5 ≦ B < 0.001 μM)”.
As for `Cc1cnc2cccc(NCc3cc(=O)n4nc(-c5ccccc5)nc4[nH]3)n12` [1-104], the Kd was greater than 500 nM.
`O=C(NCC1(CO)CCOCC1)c1c(Cl)cccc1OCc1cc(=O)n2nc(-c3ccccc3)nc2[nH]1` [47-26, 2-chloro-N-((4-(hydroxymethyl)tetrahydro-2H-pyran-4-yl)methyl)-6-((7-oxo-2-phenyl-4,7-dihydro-[1,2,4]triazolo[1,5-a]pyrimidin-5-yl)methoxy)benzamide]: the “FABP4 TdF Kd” value is listed as “B (0.5 ≦ B < 0.001 μM)”.
In the case of `C#CC1(NC(=O)C2(OCc3cc(=O)n4nc(-c5ccccc5)nc4[nH]3)CCCCC2)CCCCC1` [48-41], the “FABP4 TdF Kd” value was “B (0.5 ≦ B < 0.001 μM)”.
As to `O=C(NCCC1CC1)C1(OCc2cc(=O)n3nc(-c4ccccc4)nc3[nH]2)CCCCC1` [48-26], the “FABP4 TdF Kd” value is given as “B (0.5 ≦ B < 0.001 μM)”.
`O=c1cc(CNC2CCc3c(Cl)cccc32)[nH]c2nc(-c3ccccc3)nn12` (stereo not shown) [1-52]: the “FABP4 TdF Kd” value is listed as “B (0.5 ≦ B < 0.001 μM)”.
With `O=c1cc(CN2CCC(Cc3ccc(Cl)cc3)CC2)[nH]c2nc(-c3ccccc3)nn12` [1-78], the dissociation constant (Kd) is greater than 500 nM.
Regarding `O=C(NCC1(c2ccc(Cl)cc2)CC1)C1CCCCC1OCc1cc(=O)n2nc(-c3ccccc3)nc2[nH]1` (stereo not shown) [48-76], the “FABP4 TdF Kd” value is reported as “B (0.5 ≦ B < 0.001 μM)”.
Consider `O=C(NC1(CO)CC1)C1(OCc2cc(=O)n3nc(-c4ccccc4)nc3[nH]2)CCCCC1` [48-36], for which the “FABP4 TdF Kd” value is on record as “B (0.5 ≦ B < 0.001 μM)”.
For `O=c1cc(COc2ccccc2)[nH]c2nc(-c3ccccc3)nn12` [1-46], the Kd was greater than 500 nM.
Consider `O=C(NCC1CC1)c1c(Cl)cccc1OCc1cc(=O)n2nc(-c3ccccc3)nc2[nH]1` [47-3], for which the “FABP4 TdF Kd” value was “B (0.5 ≦ B < 0.001 μM)”.
On to `CC(C)(C)OC(=O)N1CCC(OCc2cc(=O)n3nc(-c4ccccc4)nc3[nH]2)(C(=O)NCC2CCC2)CC1` [48-22], for which the Kd was greater than 500 nM.
As for `O=c1cc(CN2CCCc3ccccc32)[nH]c2nc(-c3ccccc3)nn12` [1-13], the “FABP4 TdF Kd” value is listed as “B (0.5 ≦ B < 0.001 μM)”.
Still for that read-out and setting: to `COCC1(CNC(=O)c2ccccc2OCc2cc(=O)n3nc(-c4ccccc4)nc3[nH]2)CC1` [47-64] belongs “B (0.5 ≦ B < 0.001 μM)”.
On the same count and under the same terms, to `CN(C(=O)C1(OCc2[nH]c3nc(-c4ccccc4)nn3c(=O)c2Cl)CCCCC1)C1CCCCC1` [50-4] belongs “B (0.5 ≦ B < 0.001 μM)”.
For `CCc1ccc(OCc2cc(=O)n3nc(-c4cccnc4)nc3[nH]2)cc1` [8-5], the Kd is greater than 500 nM.
Consider `O=C(NCC1(CO)CCCC1)c1c(Cl)cccc1OCc1cc(=O)n2nc(-c3ccccc3)nc2[nH]1` [47-20, 2-chloro-N-((1-(hydroxymethyl)cyclopentyl)methyl)-6-((7-oxo-2-phenyl-4,7-dihydro-[1,2,4]triazolo[1,5-a]pyrimidin-5-yl)methoxy)benzamide], for which the “FABP4 TdF Kd” value is “B (0.5 ≦ B < 0.001 μM)”.
`O=C(NCCC1CC1)c1ccccc1OCc1cc(=O)n2nc(-c3ccccc3)nc2[nH]1` [47-61]: the “FABP4 TdF Kd” value was “B (0.5 ≦ B < 0.001 μM)”.
The same measure, in the same setting: to `COc1c(Cl)cccc1OCc1cc(=O)n2nc(-c3ccccc3)nc2[nH]1` [1-55] belongs “B (0.5 ≦ B < 0.001 μM)”.
Consider `CC1(NC(=O)c2ccccc2OCc2[nH]c3nc(-c4ccccc4)nn3c(=O)c2Cl)COC1` [24-11], for which the Kd is greater than 500 nM.
On to `CN(C(=O)c1ccccc1OCc1cc(=O)n2nc(-c3ccccc3)nc2[nH]1)C1CCCCC1` [47-62], for which the “FABP4 TdF Kd” value is given as “B (0.5 ≦ B < 0.001 μM)”.
Regarding `O=C(NCC1(CO)CCOCC1)C1(OCc2cc(=O)n3nc(-c4ccccc4)nc3[nH]2)CCCCC1` [48-62], the “FABP4 TdF Kd” value is “B (0.5 ≦ B < 0.001 μM)”.
Same read-out and setting: to `COC[C@@H]1CCCN1C(=O)c1c(Cl)cccc1OCc1cc(=O)n2nc(-c3ccccc3)nc2[nH]1` [47-9, (S)-5-((3-chloro-2-(2-(methoxymethyl)pyrrolidine-1-carbonyl)phenoxy)methyl)-2-phenyl-[1,2,4]triazolo[1,5-a]pyrimidin-7(4H)-one] belongs “B (0.5 ≦ B < 0.001 μM)”.
On to `Cc1cccc(OCc2cc(=O)n3nc(-c4ccccc4)nc3[nH]2)c1C` [1-26], for which the Kd was greater than 500 nM.
As for `COc1cc(CC(C)=O)ccc1OCc1cc(=O)n2nc(-c3ccccc3)nc2[nH]1` [1-72], the dissociation constant (Kd) is greater than 500 nM.
With `O=c1cc(CN2CCCC2Cc2ccncn2)[nH]c2nc(-c3ccccc3)nn12` (stereo not shown) [1-103], the Kd was greater than 500 nM.
Still for that read-out and setting: to `CCc1ccc(OCc2cc(=O)n3nc(-c4ccncc4)nc3[nH]2)cc1` [8-10] belongs greater than 500 nM.
`O=c1cc(COc2ccccc2Cl)[nH]c2nc(-c3ccccc3)nn12` [1-118]: the “FABP4 TdF Kd” value is “B (0.5 ≦ B < 0.001 μM)”.
For the molecule `CCc1ccc(OCc2[nH]c3ncnn3c(=O)c2F)cc1` [7-2], the Kd was greater than 500 nM.
Same read-out and setting: to `O=C(c1c(Cl)cccc1OCc1cc(=O)n2nc(-c3ccccc3)nc2[nH]1)N1CCS(=O)(=O)CC1` [47-6, 4-[2-chloro-6-[(4,7-dihydro-7-oxo-2-phenyl[1,2,4]triazolo[1,5-a]pyrimidin-5-yl)methoxy]benzoyl]thiomorpholine, 1,1-dioxide] belongs greater than 500 nM; to `O=c1cc(CNc2ccc(F)c(F)c2)[nH]c2nc(C(F)(F)F)nn12` [5-5], greater than 500 nM.
The same measure, in the same setting: to `Cn1nc(C(F)(F)F)cc1OCc1cc(=O)n2nc(-c3ccccc3)nc2[nH]1` [1-22] belongs greater than 500 nM.
Still for that read-out and setting: to `O=C(NCC1(CO)CCC1)c1ccccc1OCc1[nH]c2nc(-c3ccccc3)nn2c(=O)c1Cl` [24-10] belongs greater than 500 nM; to `O=c1cc(COC2CCCCC2O)[nH]c2nc(-c3ccccc3)nn12` (stereo not shown) [1-135], greater than 500 nM.
Consider `O=C(NCC1CC1)c1ccccc1OCc1[nH]c2nc(-c3ccccc3)nn2c(=O)c1Cl` [24-15], for which the “FABP4 TdF Kd” value is recorded as “B (0.5 ≦ B < 0.001 μM)”.
Same read-out and setting: to `O=C(NC1(CO)CCCCC1)C1(OCc2cc(=O)n3nc(-c4ccccc4)nc3[nH]2)CCCCC1` [48-67] belongs “B (0.5 ≦ B < 0.001 μM)”.
`O=C(O)C1(OCc2cc(=O)n3nc(-c4ccccc4)nc3[nH]2)CCCC1` [48-78]: the Kd is greater than 500 nM.
As to `Cn1nccc1NC(=O)c1ccccc1OCc1cc(=O)n2nc(-c3ccccc3)nc2[nH]1` [47-54], the “FABP4 TdF Kd” value is given as “B (0.5 ≦ B < 0.001 μM)”.
For the molecule `CCc1ccc(OCc2[nH]c3nc(-c4ccccc4)nn3c(=O)c2C)cc1` [15-3], the Kd was greater than 500 nM.
Take `O=c1cc(CN2CCc3ccc(Br)cc32)[nH]c2nc(-c3ccccc3)nn12` [1-82]: the “FABP4 TdF Kd” value is recorded as “B (0.5 ≦ B < 0.001 μM)”.
Still for that read-out and setting: to `O=C(NCC1(O)CCCC1)C1(OCc2cc(=O)n3nc(-c4ccccc4)nc3[nH]2)CCCCC1` [48-60] belongs “B (0.5 ≦ B < 0.001 μM)”.
The same measure, in the same setting: to `Cn1nc(C2CC2)cc1NC(=O)c1c(Cl)cccc1OCc1cc(=O)n2nc(-c3ccccc3)nc2[nH]1` [47-11] belongs “B (0.5 ≦ B < 0.001 μM)”; to `C[C@@H]1C[C@@H](OCc2cc(=O)n3nc(-c4ccccc4)nc3[nH]2)CC(C)(C)C1` [1-110], “B (0.5 ≦ B < 0.001 μM)”; to `Cc1c(F)cccc1OCc1cc(=O)n2nc(-c3ccccc3)nc2[nH]1` [1-39], “B (0.5 ≦ B < 0.001 μM)”.
On to `CCc1c(Cl)cccc1OCc1cc(=O)n2nc(-c3ccccc3)nc2[nH]1` [21-3], for which the “FABP4 TdF Kd” value is listed as “B (0.5 ≦ B < 0.001 μM)”.
Still for that read-out and setting: to `C[C@@H]1C[C@H](OCc2cc(=O)n3nc(-c4ccccc4)nc3[nH]2)CC(C)(C)C1` [1-111] belongs “B (0.5 ≦ B < 0.001 μM)”; to `O=C(NCC1(CO)CCCC1)c1ccccc1OCc1cc(=O)n2nc(-c3ccccc3)nc2[nH]1` [47-59], “B (0.5 ≦ B < 0.001 μM)”; to `CCN(C(=O)C1(OCc2cc(=O)n3nc(-c4ccccc4)nc3[nH]2)CCCCC1)C1CCCCC1` [48-38], “B (0.5 ≦ B < 0.001 μM)”.
On the same count and under the same terms, to `COC[C@H]1CCCN1C(=O)c1c(Cl)cccc1OCc1cc(=O)n2nc(-c3ccccc3)nc2[nH]1` [47-10] belongs “B (0.5 ≦ B < 0.001 μM)”.
For the molecule `COC[C@H]1CCCN1C(=O)C1(OCc2cc(=O)n3nc(-c4ccccc4)nc3[nH]2)CCCCC1` [48-6, (R)-5-((1-(2-(methoxymethyl)pyrrolidine-1-carbonyl)cyclohexyloxy)methyl)-2-phenyl-[1,2,4]triazolo[1,5-a]pyrimidin-7(4H)-one], the “FABP4 TdF Kd” value is “B (0.5 ≦ B < 0.001 μM)”.
On the same count and under the same terms, to `O=c1cc(COc2ccccc2Br)[nH]c2nc(-c3ccccc3)nn12` [1-73] belongs “B (0.5 ≦ B < 0.001 μM)”.
On to `Cc1c(Cl)cccc1NCc1cc(=O)n2nc(-c3ccccc3)cc2[nH]1` [10-2], for which the Kd was greater than 500 nM.
On the same count and under the same terms, to `O=c1cc(CN2CCn3c(nnc3C3CC3)C2)[nH]c2nc(-c3ccccc3)nn12` [1-101] belongs greater than 500 nM.
`C=CCc1c(Cl)cccc1OCc1cc(=O)n2nc(-c3ccccc3)nc2[nH]1` [42-3]: the “FABP4 TdF Kd” value is reported as “B (0.5 ≦ B < 0.001 μM)”.
For the molecule `O=C(NC1CCCCC1)c1ccccc1OCc1[nH]c2nc(-c3ccccc3)nn2c(=O)c1Cl` [24-13], the “FABP4 TdF Kd” value is recorded as “B (0.5 ≦ B < 0.001 μM)”.
On the same count and under the same terms, to `Cc1c(Cl)cccc1OCc1[nH]c2nc(-c3ccccc3)nn2c(=O)c1Cl` [3-1] belongs “B (0.5 ≦ B < 0.001 μM)”; to `O=C(NCC1(O)CCCCC1)C1(OCc2cc(=O)n3nc(-c4ccccc4)nc3[nH]2)CCCCC1` [48-56], “B (0.5 ≦ B < 0.001 μM)”.
With `O=c1cc(CN2CCCC2Cc2c(F)cccc2Cl)[nH]c2nc(-c3ccccc3)nn12` (stereo not shown) [1-131], the “FABP4 TdF Kd” value is “B (0.5 ≦ B < 0.001 μM)”.
`CCCCc1cn(Cc2cc(=O)n3nc(-c4ccccc4)nc3[nH]2)c2cccc(Cl)c12` [1-143]: the “FABP4 TdF Kd” value is “B (0.5 ≦ B < 0.001 μM)”.

One may read the Kd as a measure of binding affinity in units of concentration.
